Among the data in article PMC11969138, “LNS8801: An Enantiomerically Pure Agonist of the G Protein–Coupled Estrogen Receptor Suitable for Clinical Development” (Cancer Research Communications, 2025) are IC50 and EC50 values, retold here.

Some targets named below: OPRM1 (Homo sapiens, UniProt P35372); OPRD1 (Homo sapiens, UniProt P41143); HTR2A (Homo sapiens, UniProt P28223).
Test in all cases: Eurofins DiscoverX SAFETYscan off-target panel
Common to all, as to assay type: cell-based

The target of another assay is T1, androgen receptor (AR) (Homo sapiens, UniProt P10275).
T1 sequence (P10275 1-920): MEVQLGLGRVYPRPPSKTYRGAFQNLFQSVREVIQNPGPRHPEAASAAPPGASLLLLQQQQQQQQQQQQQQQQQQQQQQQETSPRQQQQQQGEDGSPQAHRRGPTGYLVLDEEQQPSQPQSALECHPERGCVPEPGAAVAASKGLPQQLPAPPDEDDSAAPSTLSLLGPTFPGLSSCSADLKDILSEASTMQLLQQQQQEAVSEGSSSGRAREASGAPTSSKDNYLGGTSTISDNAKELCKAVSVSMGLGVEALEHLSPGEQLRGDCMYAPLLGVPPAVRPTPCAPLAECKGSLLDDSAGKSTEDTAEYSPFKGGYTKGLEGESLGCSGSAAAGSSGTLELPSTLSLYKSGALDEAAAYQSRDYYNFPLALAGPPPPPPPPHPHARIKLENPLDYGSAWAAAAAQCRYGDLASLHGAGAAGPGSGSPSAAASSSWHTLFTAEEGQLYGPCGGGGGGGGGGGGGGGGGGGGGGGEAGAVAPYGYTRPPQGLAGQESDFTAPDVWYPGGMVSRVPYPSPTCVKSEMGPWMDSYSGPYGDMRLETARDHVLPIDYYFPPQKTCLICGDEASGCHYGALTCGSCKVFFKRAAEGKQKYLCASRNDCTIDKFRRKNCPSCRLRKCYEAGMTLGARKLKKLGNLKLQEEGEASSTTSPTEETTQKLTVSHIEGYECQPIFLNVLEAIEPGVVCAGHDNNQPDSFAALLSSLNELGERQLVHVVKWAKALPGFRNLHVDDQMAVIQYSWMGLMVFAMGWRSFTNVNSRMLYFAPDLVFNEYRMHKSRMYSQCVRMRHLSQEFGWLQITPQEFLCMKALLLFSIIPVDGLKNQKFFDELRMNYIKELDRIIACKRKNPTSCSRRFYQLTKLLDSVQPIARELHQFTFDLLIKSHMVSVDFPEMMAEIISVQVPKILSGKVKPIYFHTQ

In a further assay the target is T2, HTR1A (Homo sapiens, UniProt P08908).
T2 sequence (P08908 1-422): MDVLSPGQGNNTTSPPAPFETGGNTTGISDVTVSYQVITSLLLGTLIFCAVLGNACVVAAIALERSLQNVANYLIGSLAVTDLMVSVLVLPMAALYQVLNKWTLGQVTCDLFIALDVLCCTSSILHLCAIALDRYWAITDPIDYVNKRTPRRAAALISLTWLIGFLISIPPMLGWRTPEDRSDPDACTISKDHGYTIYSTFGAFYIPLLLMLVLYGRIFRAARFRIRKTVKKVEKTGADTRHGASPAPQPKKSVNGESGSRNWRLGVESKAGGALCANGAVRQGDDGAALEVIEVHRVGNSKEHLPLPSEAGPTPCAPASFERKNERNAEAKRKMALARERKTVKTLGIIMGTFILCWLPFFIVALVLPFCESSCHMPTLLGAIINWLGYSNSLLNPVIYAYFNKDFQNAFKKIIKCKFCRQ

For the next assay, the target named is T3, ADRA2A (Homo sapiens, UniProt P08913).
T3 sequence (P08913 1-465): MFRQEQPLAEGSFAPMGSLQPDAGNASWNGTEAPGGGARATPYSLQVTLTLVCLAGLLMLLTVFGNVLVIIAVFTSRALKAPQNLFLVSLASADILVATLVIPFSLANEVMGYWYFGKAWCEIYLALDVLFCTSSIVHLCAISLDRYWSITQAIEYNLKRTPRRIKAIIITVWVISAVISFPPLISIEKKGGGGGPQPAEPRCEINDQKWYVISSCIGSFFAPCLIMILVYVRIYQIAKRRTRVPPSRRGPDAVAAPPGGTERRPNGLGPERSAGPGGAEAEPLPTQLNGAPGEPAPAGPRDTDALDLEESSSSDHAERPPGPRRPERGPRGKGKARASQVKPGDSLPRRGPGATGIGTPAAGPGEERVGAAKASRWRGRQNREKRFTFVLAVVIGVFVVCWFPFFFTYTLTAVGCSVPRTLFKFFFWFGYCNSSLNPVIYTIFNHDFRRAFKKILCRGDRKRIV

Molecules are shown by their SMILES.

Sequence of HTR2A (P28223 whole entry): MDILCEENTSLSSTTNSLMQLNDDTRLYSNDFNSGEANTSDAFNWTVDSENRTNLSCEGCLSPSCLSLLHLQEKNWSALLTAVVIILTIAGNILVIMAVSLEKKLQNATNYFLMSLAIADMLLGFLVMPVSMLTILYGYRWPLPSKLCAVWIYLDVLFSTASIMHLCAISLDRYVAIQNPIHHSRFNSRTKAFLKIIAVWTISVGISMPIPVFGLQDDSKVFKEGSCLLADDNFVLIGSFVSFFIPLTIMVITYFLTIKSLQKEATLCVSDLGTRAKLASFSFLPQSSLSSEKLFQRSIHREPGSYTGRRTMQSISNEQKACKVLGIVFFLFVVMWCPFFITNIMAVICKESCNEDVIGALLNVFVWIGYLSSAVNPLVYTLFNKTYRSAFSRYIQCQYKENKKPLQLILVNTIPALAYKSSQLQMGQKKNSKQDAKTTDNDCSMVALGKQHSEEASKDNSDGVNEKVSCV
Sequence of OPRD1 (P41143 whole entry): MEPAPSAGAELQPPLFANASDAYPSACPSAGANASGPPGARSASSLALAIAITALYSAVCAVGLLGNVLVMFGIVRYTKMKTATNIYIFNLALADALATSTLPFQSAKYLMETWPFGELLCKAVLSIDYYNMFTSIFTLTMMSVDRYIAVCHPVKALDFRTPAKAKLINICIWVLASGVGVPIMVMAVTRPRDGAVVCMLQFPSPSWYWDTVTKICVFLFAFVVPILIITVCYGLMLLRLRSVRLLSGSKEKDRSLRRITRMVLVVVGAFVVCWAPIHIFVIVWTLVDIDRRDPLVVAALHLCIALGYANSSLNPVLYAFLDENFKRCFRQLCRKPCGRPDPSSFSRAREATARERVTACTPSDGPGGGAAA
Sequence of OPRM1 (P35372 whole entry): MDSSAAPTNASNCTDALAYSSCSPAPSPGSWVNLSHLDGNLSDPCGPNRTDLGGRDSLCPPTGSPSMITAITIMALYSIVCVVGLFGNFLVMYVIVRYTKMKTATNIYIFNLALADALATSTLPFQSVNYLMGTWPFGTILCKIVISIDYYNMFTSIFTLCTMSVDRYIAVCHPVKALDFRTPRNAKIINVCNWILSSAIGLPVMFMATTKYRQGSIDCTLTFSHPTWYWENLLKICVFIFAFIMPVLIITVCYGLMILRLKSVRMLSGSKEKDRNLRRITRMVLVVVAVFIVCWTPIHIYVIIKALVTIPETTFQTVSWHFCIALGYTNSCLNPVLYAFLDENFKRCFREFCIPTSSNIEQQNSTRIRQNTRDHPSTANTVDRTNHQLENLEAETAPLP

On to `CC(=O)c1ccc2c(c1)[C@@H]1C=CC[C@@H]1[C@H](c1cc3c(cc1Br)OCO3)N2` (racemic) [LNS8801, 1-[(3aS,4R,9bR)-4-(6-bromo-1,3-benzodioxol-5-yl)-3a,4,5,9b-tetrahydro-3H-cyclopenta[c]quinolin-8-yl] ethanone], for which the results for the IC50 at OPRM1 and against HTR2A were 3500 nM and 8200 nM, respectively. This compound came in with an EC50 on OPRD1 of 870 nM.

In the case of `CC(=O)c1ccc2c(c1)C1C=CCC1C(c1cc3c(cc1Br)OCO3)N2` (racemic) [LNS8812], the IC50 came to 4800 nM on androgen receptor (AR), 2000 nM against HTR1A and 2000 nM at ADRA2A.
